Measured values from patent US4248864A, “Reproduction control” (American Home Products Corporation, priority 1979, dated 1981).
Where “and” joins values, the source holds several entries; their conditions need not be identical. Equal values may be shown once. Entries after “also recorded” stand apart in the source; their conditions may differ.

Columns and labels:
[1] = tested on: Female Charles River CD rats (pregnancy); assay: Single intravaginal or intrajugular administration on D5 of pregnancy; format: in vivo, rat; conditions: for Number of placental sites, left horn / Number of placental sites, right horn / Number of viable fetuses, left horn / Number of viable fetuses, right horn / Uterine weight, left horn / Uterine weight, right horn: 5 rats/group; for Uterine weight, left horn / Uterine weight, right horn: in g
[2] = tested on: pregnancy; conditions: cited from earlier work
[3] = tested on: zona pellucida of blastocyst; assay: In vitro removal (lysis) of the zona pellucida of a blastocyst; format: cell-based
Text: To denude a blastocyst of its zona pellucide in vitro the fertilized ovum is removed from the uterus of the donor animal by known means. The blastocyst is then placed in a small volume of known compatable medium such as physiological saline and LHRH or an agonist is introduced into the medium. The course of removal of the zona pellucida may be readily followed with a microscope and the time period necessary for complete removal of the zona is related to the concentration of the releasing hormone, thereby permitting timed blastocyst release during egg transplant procedures. At 500 μg/μl LHRH in 0.9 percent saline the zona pellucida lyses in about 0.5 minutes; at 50 μg/μl in about 15 to 25 minutes and at 15 μg/μl in about 60 minutes. Recovery of the free blastocyst and transfer to the uterus of a properly prepared and timed mammalion species may then be effected by conventional transfer techniques under optimal timing conditions of both the fertilized egg and the uterine epithelium.

[4] = tested on: Female Charles River CD rats (pregnancy); assay: Post-coital contraceptive effect in the rat: single intrauterine (right horn) administration on D5 of pregnancy; format: in vivo; conditions: for Number of placental sites, left horn / Number of placental sites, right horn (injected) / Number of viable fetuses, left horn / Number of viable fetuses, right horn (injected) / Uterine weight, left horn and contents / Uterine weight, right horn (injected) and contents: autopsy D20, 15 rats/group; for Uterine weight, left horn and contents / Uterine weight, right horn (injected) and contents: in g
Protocol: Female Charles River CD® rats (200-210 g) were allowed to cohabit with proven males; the presence of sperm in the vaginal smear was considered day 1 (D1) of pregnancy. In order to lessen the problem of variability between experiments, 5 rats were autopsied at each dose level and the study replicated 3 times to accumulate a total of 15 rats in each experimental group. Luteinizing hormone-releasing hormone was dissolved in 2 μl of 0.9% NaCl and injected into the right horn of the uterus below the utero-tubal junction between 0945 and 1015 h on D5. One group of control animals received an intrauterine (IU) injection of 2 μl saline into the right horn on D5. The control animals were autopsied in groups of 5 rats and replicated 3 times to accumulate a total of 15 rats. On D20 the rats were sacrificed, and the uterine horns were divided and weighed individually. The number of viable fetuses as well as the number of placental sites in each horn was recorded. Fetuses from both horns, in control and experimental groups, were examined and weighed individually. A viable fetus is defined as one which compares in anatomical development and weight to a normal control fetus at D20 of gestation. Statistical analysis of the number of viable fetuses and placental sites in each horn was determined by the Kruwalc-Henderson method (Proc. Third Am. Conference of the SAS Users Group International, SAS Institute, Raleigh, North Carolina (1978)); uterine weights of each horn were subjected to analysis of variance (Conover, Practical Nonparametric Statistics, N.Y. John Wiley and Sons, Inc. page 256 (1979)).
Following the same procedure, [D-Trp^6, des-Gly-NH2^10 ]LHRH ethylamide (a representative LHRH agonist analogue) was injected into the uterine lumen of the right uterine horn of female Charles River CD® rats on day 5 after coitus. The status of the pregnancy as indicated by viable fetuses was as follows: […]

[5] = dose 1,000, single intrajugular (IV) D5
[6] = dose 1,000, single intravaginal (Vag) D5
[7] = 100 μg intrauterine right horn D5
[8] = 200 μg intrauterine right horn D5
[9] = 300 μg intrauterine right horn D5
[10] = 500 μg intrauterine right horn D5
[11] = 1,000 μg intrauterine right horn D5
[12] = 10 μg into right uterine horn day 5 after coitus, 4 rats
[13] = 100 μg into right uterine horn day 5 after coitus, 5 rats
[14] = 1,000 μg into right uterine horn day 5 after coitus, 4 rats

Luteinizing hormone releasing hormone [LHRH]
Effect on pregnancy (viable fetuses, uterine weight, placental sites) in either horn ([1]; 1000 μg via jugular vein or vagina on D5): failed to alter the pregnancy in either horn; also recorded: inactive; also recorded: no negative effects
Number of placental sites, left horn [1, 5]: 0.6±0.2
Number of placental sites, right horn [1, 5]: 0.2±0.2
Number of viable fetuses, left horn [1, 5]: 7.4±0.7
Number of viable fetuses, right horn [1, 5]: 5.4±1.0
Uterine weight, left horn [1, 5]: 26.3±3.0
Uterine weight, right horn [1, 5]: 18.2±3.9
Number of placental sites, left horn [1, 6]: 0.4±0.2
Number of placental sites, right horn [1, 6]: 0.2±0.2
Number of viable fetuses, left horn [1, 6]: 6.6±0.9
Number of viable fetuses, right horn [1, 6]: 7.4±0.8
Uterine weight, left horn [1, 6]: 20.5±2.9
Uterine weight, right horn [1, 6]: 21.4±2.0
Effect on number of viable fetuses or uterine weight ([2]; 1000 μg injection (s.c.) on D5, Humphrey et al.): failed to alter
Effect on ensuing pregnancy ([2]; acute subcutaneous injection of 5000 μg, Beattie and Corbin 1977): failed to inhibit the ensuing pregnancy
Time to lysis of the zona pellucida ([3]; 15 μg/μl in 0.9 percent saline): about 60 minutes
Time to lysis of the zona pellucida ([3]; 500 μg/μl in 0.9 percent saline): about 0.5 minutes
Number of placental sites, left horn [4, 7]: 0.1 ± 0.1
Number of placental sites, right horn (injected) [4, 7]: 0.1 ± 0.1
Number of viable fetuses, left horn [4, 7]: 5.7 ± 0.4
Number of viable fetuses, right horn (injected) [4, 7]: 3.2 ± 0.3
Uterine weight, left horn and contents [4, 7]: 19.1 ± 1.5
Uterine weight, right horn (injected) and contents [4, 7]: 12.0 ± 1.0
Number of placental sites, left horn [4, 8]: 0.1 ± 0.1
Number of placental sites, right horn (injected) [4, 8]: 1.6 ± 0.5
Number of viable fetuses, left horn [4, 8]: 5.4 ± 0.8
Number of viable fetuses, right horn (injected) [4, 8]: 1.7 ± 0.4
Uterine weight, left horn and contents [4, 8]: 19.4 ± 2.7
Uterine weight, right horn (injected) and contents [4, 8]: 6.5 ± 1.3
Number of placental sites, left horn [4, 9]: 0.7 ± 0.6
Number of placental sites, right horn (injected) [4, 9]: 1.3 ± 0.3
Number of viable fetuses, left horn [4, 9]: 6.5 ± 0.6
Number of viable fetuses, right horn (injected) [4, 9]: 1.5 ± 0.4
Uterine weight, left horn and contents [4, 9]: 21.2 ± 2.3
Uterine weight, right horn (injected) and contents [4, 9]: 6.9 ± 1.6
Number of placental sites, left horn [4, 10]: 0.5 ± 0.3
Number of placental sites, right horn (injected) [4, 10]: 1.5 ± 0.7
Number of viable fetuses, left horn [4, 10]: 6.1 ± 0.7
Number of viable fetuses, right horn (injected) [4, 10]: 1.3 ± 0.3
Uterine weight, left horn and contents [4, 10]: 21.8 ± 2.0
Uterine weight, right horn (injected) and contents [4, 10]: 6.0 ± 0.9
Number of placental sites, left horn [4, 11]: 0.3 ± 0.2
Number of placental sites, right horn (injected) [4, 11]: 2.3 ± 0.6
Number of viable fetuses, left horn [4, 11]: 6.9 ± 0.7
Number of viable fetuses, right horn (injected) [4, 11]: 0.8 ± 0.2 and 0.8
Uterine weight, left horn and contents [4, 11]: 24.3 ± 2.5
Uterine weight, right horn (injected) and contents [4, 11]: 4.3 ± 0.8
Number of placental sites vs control ([4]; 200-1000 μg intrauterine right horn D5): significant increase
Number of viable fetuses in the right horn vs control ([4]; all doses (100-1,000 μg) intrauterine right horn D5): significant reduction
Single intra-uterine treatment dose sufficient to prevent pregnancy [4]: about 1,000 μg

[D-Trp^6 -N-methyl-Leu^7 des-Gly NH2^10 ]LHRH ethylamide
Single intra-uterine treatment dose sufficient to prevent pregnancy [4]: 100 µg

[D-Trp^6, des-Gly-NH2^10 ]LHRH ethylamide
Viable Fetuses Mean, Left [4, 12]: 6.5
Viable Fetuses Mean, Right [4, 12]: 3.8
Viable Fetuses Mean, Left [4, 13]: 3.6
Viable Fetuses Mean, Right [4, 13]: 0.4
Viable Fetuses Mean, Left [4, 14]: 3.3
Viable Fetuses Mean, Right [4, 14]: 0.5
